Measured values from ChEMBL document CHEMBL5303304, “EUbOPEN Chemogenomics Library - IncuCyte” (2023).
Values joined by “and” are separate entries in the source; they are usually repeats but may differ in a detail not shown here. Equal values may be shown once.

Assays:
Type in all cases: toxicity, cell-based
HEK-293T = experiment: Incucyte cell viability with HEK293T; details: human, 10 µM, compound concentration 10 uM
U2OS = experiment: Incucyte cell viability with U2OS; details: human, 10 µM, compound concentration 10 uM
Fibroblast = experiment: Incucyte cell viability with human fibroblast; details: 10 µM, compound concentration 10 uM
Also: unitless GR value; below 1 slowed growth and below 0 cell loss.

Row | Compound | Growth Rate (HEK-293T; 0 h, replicate number 2) | Growth Rate (HEK-293T; 6 h, replicate number 2) | Growth Rate (HEK-293T; 12 h, replicate number 2) | Growth Rate (U2OS; 12 h, replicate number 1) | Growth Rate (U2OS; 12 h, replicate number 2) | Growth Rate (U2OS; 18 h, replicate number 1) | Growth Rate (U2OS; 18 h, replicate number 2) | Growth Rate (U2OS; 24 h, replicate number 1) | Growth Rate (U2OS; 24 h, replicate number 2) | Growth Rate (Fibroblast; 0 h, replicate number 2) | Growth Rate (Fibroblast; 6 h, replicate number 2) | Growth Rate (Fibroblast; 12 h, replicate number 2) | Growth Rate (HEK-293T; 18 h, replicate number 1) | Growth Rate (HEK-293T; 18 h, replicate number 2) | Growth Rate (HEK-293T; 24 h, replicate number 1) | Growth Rate (HEK-293T; 24 h, replicate number 2) | Growth Rate (Fibroblast; 12 h, replicate number 1) | Growth Rate (Fibroblast; 18 h, replicate number 1) | Growth Rate (Fibroblast; 24 h, replicate number 1) | Growth Rate (Fibroblast; 24 h, replicate number 2) | further results
1 | CCNC(=O)c1ccc2c(c1)NC(=O)/C2=C(\Nc1ccc(CN(C)C)cc1)c1ccccc1 | -1 | 0.16 | 0.83 | 0.63 and 0.95 | 0.85 | 0.75 and 0.9 | 0.8 | 0.84 and 0.87 | 0.83 | 0.87 | 0.09 | 0.8 | – | – | – | – | – | – | – | – | Growth Rate (U2OS; 0 h, replicate number 2): 0.96; Growth Rate (U2OS; 6 h, replicate number 1): 0.67 and 0.82; Growth Rate (U2OS; 6 h, replicate number 2): 1
2 | CN1CCCN(C(=O)c2cccc(-c3ccc(/C=C4/C(=O)Nc5ccc(Cl)cc54)o3)c2)CC1 | -1 | -0.67 | -0.63 | -0.7 | -0.54 | -0.53 | -0.44 | -0.48 | -0.42 | – | -0.94 | -0.82 | -0.51 | -0.49 | -0.45 | -0.47 | -0.83 | -0.74 | -0.67 | -0.63 | Growth Rate (HEK-293T; 6 h, replicate number 1): -0.69; Growth Rate (HEK-293T; 12 h, replicate number 1): -0.6; Growth Rate (U2OS; 0 h, replicate number 2): -0.78; Growth Rate (U2OS; 6 h, replicate number 1): -0.67; Growth Rate (U2OS; 6 h, replicate number 2): -0.6; Growth Rate (Fibroblast; 6 h, replicate number 1): -0.99; Growth Rate (Fibroblast; 18 h, replicate number 2): -0.72
3 | N[C@@H]1CCCN(c2c(/C=C3\SC(=O)NC3=O)cccc2-c2ccccc2)C1 | -0.99 | 0.84 | 0.79 | 0.97 | – | – | – | – | – | – | 0.19 | 0.34 | 0.8 | 0.84 | 0.92 | 0.97 | 0.71 | 0.83 | 1 | 0.53 | Growth Rate (U2OS; 0 h, replicate number 1): -0.41; Growth Rate (Fibroblast; 18 h, replicate number 2): 0.55
4 | Cn1cc(NC(=O)c2ccc3nc4n(c3c2)CCCNC4=O)nc1C(=O)NC1CCCC1 | 0.71 | 0.99 | 0.88 | 0.82 | 0.97 | 0.95 | 0.99 | 0.91 | – | 0.62 | 0.57 | 0.76 | 0.64 | 0.85 | 0.81 | 0.9 | 0.67 | 0.91 | 0.79 | 0.92 | Growth Rate (HEK-293T; 12 h, replicate number 1): 0.69; Growth Rate (U2OS; 0 h, replicate number 1): 0.36; Growth Rate (Fibroblast; 0 h, replicate number 1): 0.88; Growth Rate (Fibroblast; 18 h, replicate number 2): 0.78
5 | Nc1ncnc2c1ccn2[C@@H]1O[C@H]([C@@H](O)c2ccccc2)[C@@H](O)[C@H]1O | -0.97 | – | – | – | 1 | 0.86 | 0.91 | 0.8 | 0.95 | – | 0.31 | 0.57 | – | – | – | – | 0.69 | 0.97 | 0.81 | – | Growth Rate (HEK-293T; 6 h, replicate number 1): 0.8; Growth Rate (Fibroblast; 6 h, replicate number 1): 0.32
6 | CN(C)[C@H]1CCc2nc(NC(=O)c3cccc(Cn4cc(-c5ccc(C#N)cc5)cn4)c3)sc2C1.O=C(O)C(F)(F)F | -0.96 | 0.68 | 0.74 | – | – | – | 0.89 | – | 0.75 | -0.64 | – | – | 0.59 | 0.68 | 0.51 | 0.62 | – | – | – | 0.57 | Growth Rate (HEK-293T; 6 h, replicate number 1): 0.98; Growth Rate (HEK-293T; 12 h, replicate number 1): 0.52; Growth Rate (Fibroblast; 0 h, replicate number 1): -0.59
7 | CC#CC(=O)N1CCN(c2nc(-c3ccc(Oc4ccccc4)cc3)c(C(N)=O)s2)CC1 | -0.85 | 0.66 | 0.74 | 0.55 | 0.92 | 0.66 | 0.94 | 0.69 | 0.94 | 0.75 | 0.18 | 0.22 | 0.61 | 0.6 | 0.66 | 0.64 | 0.5 | 0.52 | 0.32 | 0.44 | Growth Rate (HEK-293T; 6 h, replicate number 1): 0.41; Growth Rate (HEK-293T; 12 h, replicate number 1): 0.43; Growth Rate (U2OS; 0 h, replicate number 1): 0.94; Growth Rate (U2OS; 6 h, replicate number 1): 0.5; Growth Rate (U2OS; 6 h, replicate number 2): 0.82; Growth Rate (Fibroblast; 0 h, replicate number 1): 0.51; Growth Rate (Fibroblast; 6 h, replicate number 1): 0.87; Growth Rate (Fibroblast; 18 h, replicate number 2): 0.4
8 | COc1cc2ncnc(Nc3ccc(F)c(Cl)c3)c2cc1OCCN(C)C[C@H](C)O | -0.98 | 0.69 | 0.49 | 0.68 | 0.35 | 0.77 | 0.44 | 0.92 | 0.42 | 0 | 0.44 | -0.12 | 0.65 | 0.69 | 0.65 | 0.73 | -0.2 | -0.23 | -0.21 | 0 | Growth Rate (HEK-293T; 6 h, replicate number 1): 0.36; Growth Rate (HEK-293T; 12 h, replicate number 1): 0.61; Growth Rate (U2OS; 0 h, replicate number 2): 0.24; Growth Rate (U2OS; 6 h, replicate number 1): 0.7; Growth Rate (U2OS; 6 h, replicate number 2): 0.36; Growth Rate (Fibroblast; 6 h, replicate number 1): -0.42; Growth Rate (Fibroblast; 18 h, replicate number 2): -0.05
9 | CN1CCN(c2ccc(/C=C(\C#N)c3ccccc3Br)cc2)CC1.Cl.Cl | -0.96 | 0.54 | 0.47 | – | – | – | – | – | – | 0.65 | 0.09 | -0.18 | 0.38 | 0.48 | 0.46 | 0.71 | 0.42 | 0.18 | 0.05 | -0.21 | Growth Rate (HEK-293T; 6 h, replicate number 1): 0; Growth Rate (HEK-293T; 12 h, replicate number 1): 0.24; Growth Rate (U2OS; 6 h, replicate number 1): 0.94; Growth Rate (Fibroblast; 0 h, replicate number 1): 0.9; Growth Rate (Fibroblast; 6 h, replicate number 1): 0.32; Growth Rate (Fibroblast; 18 h, replicate number 2): -0.18
